From patent US20120165325A1, “Stable forms of N-(2,6-Dimethyl-4-morpholin-4-yl-phenyl)-3,3-dimethyl-butyramide” (H. Lundbeck A/S, priority 2009, published 2012)

How the values were obtained:
Male Wistar rats = assay: Conditioned avoidance response; type: in vivo, rat; conditions: for % inhibition of avoidance (Std. dev.) Relative to baseline: rats
Method: Subjects. Male Wistar rats (Taconic, Denmark) weighing 150 g at the beginning of the study were used. The rats were housed in pairs and maintained on a 12 h light/dark cycle (lights on 06:00). The animals were fed once daily (approx. 6 pellets/rat) in order to keep the rats at 80% of their free-feeding weight. Water was available ad libitum. Temperature (21±1° C.) and relative humidity (55±5%) were automatically controlled.
Experimental procedure. Conditioned avoidance testing was conducted using four automated shuttle-boxes (ENV-010M, MED-Associates) each placed in a sound-attenuated chamber. Each box was divided into two compartments by a partition with an opening. The position of the animal and crossings from one compartment to the other were detected by two photocells placed on either side of the dividing wall. Upon presentation of the conditioned stimuli (CS), tone and light, the animals have 10 s to cross to the other compartment of the shuttle-box in order to turn the CS off (end the trial) and avoid the appearance of the unconditioned stimulus (UCS). If the rat remained in the same compartment for more than 10 s, the UCS is presented as 0.5 mA scrambled foot-shocks until escape was performed or 10 s in maximal duration. The following behavioural variables were evaluated: avoidance (response to CS within 10 s); escape (reponse to CS+UCS); escape failures (failure to respond); intertrial crosses and locomotor activity. The rats were habituated to the shuttle-box 3 min before each test session. During training each test session consists of 30 trials with intertrial intervals varying randomly between 20 s and 30 s. Training was carried until the rats display an avoidance of 80% or more, on 3 consecutive days. […]
Statistical analyses. The effects of compounds on avoidance and escape failure behaviours were statistically evaluated by means of a two-way repeated measures ANOVA followed by post hoc comparisons (Student-Newman-Keuls Method) when appropriate. […]

Male NMRI mice = assay: Forced swim test; type: in vivo, mouse; conditions: 30 min before test, last 3 min of 6 min swim, vehicle = 100
Method: Subjects. Male NMRI mice (Charles River) weighing 23-25 g were used. The mice were kept 8 mice pr cage in a 12-hr light/dark cycle under controlled conditions for regular in-door temperature (21±2° C.) and humidity (55±5%) with food and tap water available ad libitum. 8 mice were used pr experimental group.
Experimental procedure. The mice were placed in 2000 ml beaker containing 1200 ml of tempered water (25° C.) and left to swim for 6 min. The performance of the mice was video recorded, digitalized and analysed by means of a digital analysis system (Bioobserve). The time spent immobile for the last 3 min. of the test session was quantified for each mouse.
Treatment. 30 min. before the test, mice were treated s.c. with N-(2,6-dimethyl-4-morpholin-4-yl-phenyl)-3,3-dimethyl-butyramide or vehicle (10-%-2-OH-propyl-cyclodextrin, 10 ml/kg). In addition as positive control, imipramine-HCl (40 mg/kg) and a saline control (10 ml/kg) was included.
Analyses. The time spent immobile was statistically compared across the experimental groups against the relevant control group by means of one-way analysis of variance. A post-hoc test (Student-Newman-Keuls) was employed when appropriate. P-levels <0.05 were considered significant.

DA neurons in the VTA = assay: Electrophysiology: spontaneous DA cell firing in the VTA of anaesthetised rats; type: in vivo, rat; conditions: mean ± SEM
Method: Subjects. Male Wistar rats (Harlan, The Netherlands) weighing 270-340 g were used. The animals were housed under a 12-hr light/dark cycle under controlled conditions for regular in-door temperature (21±2° C.) and humidity (55±5%) with food and tap water available ad libitum.
Experimental procedure. The rats were anaesthetised with an intraperitoneal injection of chloral hydrate (400 mg/kg). A femoral vein catheter was then inserted for supplementary anaesthetic injections (100 mg/kg) and drug administration. Animals were then mounted in a stereotaxic frame, the skull was exposed, and a hole (0.5×0.5 cm) was drilled above the ventral tegmental area. Extracellular single-cell recordings were performed using electrodes pulled from glass capillaries and filled with 2% Pontamine Sky Blue in 2 M NaCl. The tip of the electrode was broken under microscopic control, yielding an impedance of 2.0-8.0 MΩ a 135 Hz. The electrode was then lowered into the brain, using a hydraulic microdrive, aimed at the following coordinates: 5.5-5.0 mm posterior to Bregma; 0.5-0.9 mm lateral to the midline. Extracellular action potentials were amplified, discriminated and monitored on an oscilloscope and an audiomonitor. Discriminated spikes were collected and analysed using Spike 2 software (Cambridge Electronic Design Ltd., Cambridge, UK) on a PC-based system connected to a CED 1401 interface unit (Cambridge Electronic Design Ltd.). Presumed dopaminergic neurons were typically found 7.0-8.5 mm beneath the brain surface and were characterised by (1) a slow and irregular firing pattern (0.5-10 Hz), and (2) triphasic action potentials with a predominant positive component, a negative component followed by a minor positive component, with an overall duration >2.5 ms (Bunney et al. 1973, J. Pharmacol. Exp. They., 185, 560-571.).
Administration of compounds. Once a stable basal firing rate was obtained, cumulated doses of N-(2,6-Dimethyl-4-morpholin-4-yl-phenyl)-3,3-dimethyl-butyramide ([…]; volume range 0.12-1.0 ml/kg) were administered i.v., each injection being separated by at least 3 min. These i.v. doses match the s.c. dose range of 0-10 mg/kg.
Statistical analysis. Drug effects were assessed by statistical comparison of the mean firing rate calculated from the 2-3 min period immediately before the first drug administration (baseline) to the mean firing rate calculated from at least 60 s at the maximal drug effect. Data were analysed statistically by a one-way ANOVA followed by Student-Newman-Keuls posthoc test. A p-value less than 0.05 was considered significant.

Cc1cc(N2CCOCC2)cc(C)c1NC(=O)CC(C)(C)C [N-(2,6-dimethyl-4-morpholin-4-yl-phenyl)-3,3-dimethyl-butyramide]
% inhibition of avoidance (Std. dev.) Relative to baseline (Male Wistar rats; 2.5 mg/kg s.c. 30 min before the test): 1 (14) % | % inhibition of avoidance (Std. dev.) Relative to baseline (Male Wistar rats; 5 mg/kg s.c. 30 min before the test): 71% | Escape failures (effect on motor performance) (Male Wistar rats; 2.5 and 5 mg/kg s.c., data not shown): None of the tested doses caused any incidences of escape failures | Immobility in % (±S.D.) (Male NMRI mice; dose 1.3 mg/kg): 102% | Immobility in % (±S.D.) (Male NMRI mice; dose 2.5 mg/kg): 96.7% | Immobility in % (±S.D.) (Male NMRI mice; dose 5.0 mg/kg): 82.3% | Spontaneous DA cell firing rate as a percentage of baseline firing rate (DA neurons in the VTA; cumulated dose 0.03 mg/kg i.v.): 89.8 ± 4.5 (5) percentage of baseline firing rate | Spontaneous DA cell firing rate as a percentage of baseline firing rate (DA neurons in the VTA; cumulated dose 0.1 mg/kg i.v.): 81.0 ± 4.0 (5) percentage of baseline firing rate | Spontaneous DA cell firing rate as a percentage of baseline firing rate (DA neurons in the VTA; cumulated dose 0.25 mg/kg i.v.): 74.1 ± 6.3 (4) percentage of baseline firing rate | Spontaneous DA cell firing rate as a percentage of baseline firing rate (DA neurons in the VTA; cumulated dose 0.5 mg/kg i.v.): 68.1 ± 6.0 (4) percentage of baseline firing rate | Spontaneous DA cell firing rate as a percentage of baseline firing rate (DA neurons in the VTA; cumulated dose 1.0 mg/kg i.v.): 57.1 ± 7.9 (3) percentage of baseline firing rate
